Experimental data reported in patent US20240002344A1, “COMPOUNDS, COMPOSITIONS AND METHODS FOR HISTONE LYSINE DEMETHYLASE INHIBITION” (FibroGen, Inc., priority 2020, published 2024).
pIC50: −log10 of the molar value.

What was measured:
recombinant human KDM4A = molecular target: T1, recombinant human KDM4A (Homo sapiens, UniProt O75164); test: 14CO2 capture enzymatic assay (decarboxylation of [1-14C] αKG), KDM4A; type: biochemical; conditions: 10 μM [1-14C] αKG, 90 μM non-labeled αKG, 50 μM peptide substrate, 37° C., 1 hour, final 1% DMSO
T1 construct: made in house
T1 sequence (O75164 1-359 limits assumed): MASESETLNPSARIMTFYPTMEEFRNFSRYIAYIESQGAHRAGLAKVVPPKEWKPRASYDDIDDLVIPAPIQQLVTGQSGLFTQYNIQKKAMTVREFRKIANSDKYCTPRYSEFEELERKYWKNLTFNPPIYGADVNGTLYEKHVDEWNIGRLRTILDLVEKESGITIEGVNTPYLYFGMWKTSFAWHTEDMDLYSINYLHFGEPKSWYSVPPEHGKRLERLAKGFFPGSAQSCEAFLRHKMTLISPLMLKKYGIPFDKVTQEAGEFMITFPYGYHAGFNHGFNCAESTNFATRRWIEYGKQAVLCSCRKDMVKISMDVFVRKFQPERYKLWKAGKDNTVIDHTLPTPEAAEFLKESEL
Method: (§1) Enzymatic activity was determined based on the capture of ^14CO2 released by the decarboxylation of [1-^14C] αKG (Zhang et al., Anal. Biochem., 1998, vol. 271, pp. 137-142). [1-^14C]alphaketoglutarate (αKG) was from Perkin-Elmer, H3K4me3 and H3K9me3 peptides were from Mimotopes. All other reagents were from Sigma. Reaction mixtures included the following components: Fe(SO4), [1-^14C] αKG, non-labeled αKG, ascorbate, peptide-substrate (H3K4me3: H-ARTK(me3)QTARKSTGGKAPRKQLA-OH. H3K9me3: H-ARTKQTARK(me3)STGGKAPRKQLA-OH), NaCl, Tween-20 and catalase in 25 mM HEPES buffer, pH 7.4. The enzymatic reactions were initiated by addition of recombinant human KDM5B or KDM4A enzyme (truncated enzyme produced in house by method and using sequence disclosed in Ng et al, Nature 448:87-91, 2007). The reactions were performed in 96-well microtiter plates (20 μL total assay volume) (Greiner #650201). ^14CO2 was captured on a glass fiber filter paper (Cat. No. IH-201-A, Inotech Biosystems International) soaked with saturated Ba(OH)2 that was laid on top of the 96-well plate. A microtiter plate sealer film (Thermal Seal cat #T7961100) was applied to the filter paper. The plate and filter paper were sandwiched between two custom made aluminum plates (Advanced Component Manufacturing, Burlingame, CA) and transferred to a 37° C. oven and allowed to incubate for 1 hour. After incubation, the filter paper was dried in a 103° C. oven for 40-60 minutes. To determine percent turnover, aliquots of the reaction mixture were spotted onto the filter paper and the filter paper was dried again. The dry filter paper was exposed to a storage phosphor screen for 24-72 hours and the images recorded using a Typhoon FLA 7000 Imager (Amersham Biosciences, Piscataway, NJ). Integrated spot intensities corresponding to control reactions lacking the enzyme were subtracted from integration results for enzyme containing reactions and data were converted to enzyme dependent percent ^14CO2 release. All enzymatic reactions were run in duplicates.
(§2) For IC50 determination, a 3-fold dilution series of compound was prepared and added to the reaction mixture (final 1% DMSO, v/v) prior to enzyme addition. The final reagent concentrations were: 10 μM Fe(SO4), 10 μM [1-^14C] αKG, 90 μM non-labeled αKG, 2 mM ascorbate, 50 μM peptide substrate, 75 mM NaCl, 0.01% Tween-20 and ˜2 units/μL catalase. IC50s were determined by non-linear fitting using Grafit version 7.0.

recombinant human KDM5B = molecular target: T2, recombinant human KDM5B (Homo sapiens, UniProt Q9UGL1); test: 14CO2 capture enzymatic assay (decarboxylation of [1-14C] αKG), KDM5B; type: biochemical; conditions: 10 μM [1-14C] αKG, 90 μM non-labeled αKG, 50 μM peptide substrate, 37° C., 1 hour, final 1% DMSO
T2 sequence (Q9UGL1 374-755 limits assumed): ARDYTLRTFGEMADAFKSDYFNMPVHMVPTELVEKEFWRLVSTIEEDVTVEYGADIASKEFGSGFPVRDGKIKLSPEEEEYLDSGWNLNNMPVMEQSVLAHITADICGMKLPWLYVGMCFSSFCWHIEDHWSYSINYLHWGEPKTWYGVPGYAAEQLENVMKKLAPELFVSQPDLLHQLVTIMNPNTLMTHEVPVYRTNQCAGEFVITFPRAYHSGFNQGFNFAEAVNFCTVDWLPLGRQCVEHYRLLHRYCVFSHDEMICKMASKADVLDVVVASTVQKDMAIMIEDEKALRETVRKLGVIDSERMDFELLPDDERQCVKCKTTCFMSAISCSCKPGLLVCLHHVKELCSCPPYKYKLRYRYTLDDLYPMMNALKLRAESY
Method: as §1, §2

Row | Structure (SMILES) | pIC50 (recombinant human KDM4A) | pIC50 (recombinant human KDM5B)
1 | N#Cc1cc(Cc2cc(Cl)cc(Cl)c2)nc(C(=O)CCC(=O)O)c1O [Example 31, 4-[4-Cyano-6-(3,5-dichloro-benzyl)-3-hydroxy-pyridin-2-yl]-4-oxo-butyric acid] | < 4.40 | 6.64
2 | N#Cc1cc(Cc2c(Cl)cccc2Cl)nc(C(=O)CCC(=O)O)c1O [Example 32, 4-[4-Cyano-6-(2,6-dichloro-benzyl)-3-hydroxy-pyridin-2-yl]-4-oxo-butyric acid] | 4.92 | 6.62
3 | N#Cc1cc(CC2CCCCC2)nc(C(=O)CCC(=O)O)c1O [Example 33, 4-(4-Cyano-6-cyclohexylmethyl-3-hydroxy-pyridin-2-yl)-4-oxo-butyric acid] | < 4.40 | 6.38
4 | N#Cc1cc(Cc2cccc3ccccc23)nc(C(=O)CCC(=O)O)c1O [Example 34, 4-(4-Cyano-3-hydroxy-6-naphthalen-1-ylmethyl-pyridin-2-yl)-4-oxo-butyric acid] | 4.92 | 7.22
5 | N#Cc1cc(C(F)(F)F)nc(C(=O)CCC(=O)O)c1O [Example 35, 4-(4-Cyano-3-hydroxy-6-trifluoromethyl-pyridin-2-yl)-4-oxo-butyric acid] | 4.92 | 7.30
6 | Cc1ccccc1Cc1cc(C#N)c(O)c(C(=O)CCC(=O)O)n1 [Example 36, 4-[4-Cyano-3-hydroxy-6-(2-methyl-benzyl)-pyridin-2-yl]-4-oxo-butyric acid] | 5.43 | 7.15
7 | Cc1cccc(Cc2cc(C#N)c(O)c(C(=O)CCC(=O)O)n2)c1 [Example 37, 4-[4-Cyano-3-hydroxy-6-(3-methyl-benzyl)-pyridin-2-yl]-4-oxo-butyric acid] | < 4.40 | 7.22
8 | Cc1ccc(Cc2cc(C#N)c(O)c(C(=O)CCC(=O)O)n2)cc1 [Example 38, 4-[4-Cyano-3-hydroxy-6-(4-methyl-benzyl)-pyridin-2-yl]-4-oxo-butyric acid] | < 4.40 | 6.92
9 | N#Cc1cc(Cc2ccc(C(F)(F)F)cc2)nc(C(=O)CCC(=O)O)c1O [Example 39, 4-[4-Cyano-3-hydroxy-6-(4-trifluoromethyl-benzyl)-pyridin-2-yl]-4-oxo-butyric acid] | < 4.40 | 6.89
10 | N#Cc1cc(Cc2ccc(F)cc2)nc(C(=O)CCC(=O)O)c1O [Example 40, 4-[4-Cyano-6-(4-fluoro-benzyl)-3-hydroxy-pyridin-2-yl]-4-oxo-butyric acid] | 4.77 | 7.22
11 | N#Cc1cc(Cc2ccccc2C(F)(F)F)nc(C(=O)CCC(=O)O)c1O [Example 41, 4-[4-Cyano-3-hydroxy-6-(2-trifluoromethyl-benzyl)-pyridin-2-yl]-4-oxo-butyric acid] | 4.66 | 6.82
12 | N#Cc1cc(Cc2cccc(F)c2)nc(C(=O)CCC(=O)O)c1O [Example 42, 4-[4-Cyano-6-(3-fluoro-benzyl)-3-hydroxy-pyridin-2-yl]-4-oxo-butyric acid] | 4.49 | 6.68
13 | N#Cc1cc(Cc2ccccc2F)nc(C(=O)CCC(=O)O)c1O [Example 43, 4-[4-Cyano-6-(2-fluoro-benzyl)-3-hydroxy-pyridin-2-yl]-4-oxo-butyric acid] | 4.43 | 6.82
14 | N#Cc1ccc(Cc2cc(C#N)c(O)c(C(=O)CCC(=O)O)n2)cc1 [Example 44, 4-[4-Cyano-6-(4-cyano-benzyl)-3-hydroxy-pyridin-2-yl]-4-oxo-butyric acid] | < 4.40 | 6.64
15 | N#Cc1cccc(Cc2cc(C#N)c(O)c(C(=O)CCC(=O)O)n2)c1 [Example 45, 4-[4-Cyano-6-(3-cyano-benzyl)-3-hydroxy-pyridin-2-yl]-4-oxo-butyric acid] | < 4.40 | 6.27
16 | N#Cc1ccccc1Cc1cc(C#N)c(O)c(C(=O)CCC(=O)O)n1 [Example 46, 4-[4-Cyano-6-(2-cyano-benzyl)-3-hydroxy-pyridin-2-yl]-4-oxo-butyric acid] | 4.89 | 6.37
17 | N#Cc1cc(Cc2ccc(OC(F)(F)F)cc2)nc(C(=O)CCC(=O)O)c1O [Example 47, 4-[4-Cyano-3-hydroxy-6-(4-trifluoromethoxy-benzyl)-pyridin-2-yl]-4-oxo-butyric acid] | < 4.40 | 6.52
18 | N#Cc1cc(Cc2cccc(OC(F)(F)F)c2)nc(C(=O)CCC(=O)O)c1O [Example 48, 4-[4-Cyano-3-hydroxy-6-(3-trifluoromethoxy-benzyl)-pyridin-2-yl]-4-oxo-butyric acid] | < 4.40 | 6.51
19 | N#Cc1cc(Cc2ccccc2OC(F)(F)F)nc(C(=O)CCC(=O)O)c1O [Example 49, 4-[4-Cyano-3-hydroxy-6-(2-trifluoromethoxy-benzyl)-pyridin-2-yl]-4-oxo-butyric acid] | < 4.40 | 6.57
20 | N#Cc1cc(Cc2ccc(-c3ccccc3)cc2)nc(C(=O)CCC(=O)O)c1O [Example 50, 4-(6-Biphenyl-4-ylmethyl-4-cyano-3-hydroxy-pyridin-2-yl)-4-oxo-butyric acid] | < 4.40 | 6.41
21 | N#Cc1cc(Cc2cccc(-c3ccccc3)c2)nc(C(=O)CCC(=O)O)c1O [Example 51, 4-(6-Biphenyl-3-ylmethyl-4-cyano-3-hydroxy-pyridin-2-yl)-4-oxo-butyric acid] | < 4.40 | 6.70
22 | N#Cc1cc(Cc2ccccc2-c2ccccc2)nc(C(=O)CCC(=O)O)c1O [Example 52, 4-(6-Biphenyl-2-ylmethyl-4-cyano-3-hydroxy-pyridin-2-yl)-4-oxo-butyric acid] | < 4.40 | 6.52
23 | N#Cc1cc(Cc2c(F)cccc2F)nc(C(=O)CCC(=O)O)c1O [Example 53, 4-[4-Cyano-6-(2,6-difluoro-benzyl)-3-hydroxy-pyridin-2-yl]-4-oxo-butyric acid] | < 4.40 | 6.60
24 | Cc1cccc(C)c1Cc1cc(C#N)c(O)c(C(=O)CCC(=O)O)n1 [Example 54, 4-[4-Cyano-6-(2,6-dimethyl-benzyl)-3-hydroxy-pyridin-2-yl]-4-oxo-butyric acid] | 5.31 | 6.64
25 | N#Cc1cc(Cc2c(F)cc(F)cc2F)nc(C(=O)CCC(=O)O)c1O [Example 55, 4-[4-Cyano-3-hydroxy-6-(2,4,6-trifluoro-benzyl)-pyridin-2-yl]-4-oxo-butyric acid] | 4.47 | 6.66
26 | N#Cc1cc(Cc2c(F)ccc(Cl)c2F)nc(C(=O)CCC(=O)O)c1O [Example 56, 4-[6-(3-Chloro-2,6-difluoro-benzyl)-4-cyano-3-hydroxy-pyridin-2-yl]-4-oxo-butyric acid] | < 4.40 | 6.54
27 | N#Cc1cc(Cc2c(F)ccc(F)c2F)nc(C(=O)CCC(=O)O)c1O [Example 57, 4-[4-Cyano-3-hydroxy-6-(2,3,6-trifluoro-benzyl)-pyridin-2-yl]-4-oxo-butyric acid] | 4.55 | 6.57
28 | N#Cc1cc(Cc2c(Cl)cccc2C#N)nc(C(=O)CCC(=O)O)c1O [Example 58, 4-[6-(2-Chloro-6-cyano-benzyl)-4-cyano-3-hydroxy-pyridin-2-yl]-4-oxo-butyric acid] | 4.80 | 6.74
